From US8722014B2, “1 H-[1, 2, 3] triazole substituted amino acids and uses thereof” (Washington University, priority 2009, dated 2014)

What was measured:
9L gliosarcoma cells = test: Cell uptake assay in 9L gliosarcoma cells with amino acid transport inhibitors (cluster tray method); format: cell-based; settings: for percent uptake relative to control, Na ASC: L-Ala/L-Ser/L-Cys 3.3 mM each
Procedure: The 9L gliosarcoma tumor is an established model for human glioblastoma (brain tumor). Cell uptake assays were performed with 9L gliosarcoma cells using both (R)-[^18F]4 and (S)-[^18F]4. 9L gliosarcoma cells were cultured with Earle's minimal essential medium (MEM) augmented with 10% newborn calf serum, 1% 200 mM L-glutamine, 1% MEM vitamin solution and 1% 10 mM non-essential amino acids (NEAA). The cells were passaged every two to three days prior to use with no more than a total of 20 passages. Two to three days before the uptake assays, suspension of 2.5 or 5.0×10^4 cells in culture media were aliquoted into Costar 24 well plates to achieve log growth phase with approximately 70% confluency at the time of the uptake assay (approximately 10^5 cells per well).
Cell uptake assays were performed using the cluster tray method reported in Gazzola et al., Anal. Biochem. 115: 368-374, 1981. Two buffers were used for the assays, a phosphate buffered saline solution and a sodium-free phosphate buffered choline chloride solution. […] The choline buffer was the same as the sodium buffer except choline chloride was substituted for sodium chloride and choline phosphate dibasic was substituted for sodium phosphate dibasic. A 250 mM solution of choline phosphate dibasic was prepared by boiling 95.6 mL of 75% of choline bicarbonate (0.500 mol) and 16.9 mL of 85% aqueous phosphoric acid (0.247 mol) in 750 mL of water for 60 min. The solution was brought to a total volume of 1 liter with water and brought to pH 7.4 with concentrated aqueous hydrochloric acid. The pH of the sodium and choline buffer solutions was adjusted to 7.4 with concentrated aqueous hydrochloric acid prior to use.
A variety of inhibitor conditions were used to determine which amino acid transport system or systems were responsible for cellular uptake of (R)- and (S)-[^18F]-4. The N-methylated amino acid, methylaminoisobutyric acid (MeAIB), is a selective system A substrate and has been used extensively as a competitive inhibitor of system A transport (Shotwell, M. A., et al. Biochem. Biophys. Acta. 737: 267-284, 1983; Christensen, H. N., et al., J. Biol. Chem. 240: 3609-3616, 1965) The bulky neutral amino acid, 2-aminobicyclo-(2,2,1)-heptane-2-carboxylic acid (BCH), has been extensively used as a competitive inhibitor of system L transport, and under sodium-free conditions BCH is a selective system L inhibitor (Palacin, M., et al., Physiol. Rev. 78: 969-1054, 1998. In the presence of sodium, BCH is also an inhibitor of system B^0,+ which is a sodium-dependent amino acid transporter that typically is a minor transport systems in most tissues. A mixture of L-alanine (L-Ala), L-serine (L-Ser) and L-cysteine (L-Cys), (ASC), was used as a non-specific inhibitor condition, and this combination of amino acids is expected to inhibit a broad range of amino acid transport systems including system ASC. Because of the results of initial cell uptake assays described below and the structural relationship of the 1H-1,2,3-triazole group to the imidazole side chain of L-histidine (L-His), additional uptake assays using L-His as well as the basic side chain amino acids L-arginine (L-Arg) and L-lysine (L-Lys) individually and together (RKH) as competitive inhibitors were performed.
The following inhibitors were added to the appropriate sodium or choline buffer: N-methyl aminoisobutyric acid (MeAIB, 10 mM), a mixture of L-alanine/L-serine/L-cysteine (ASC, 3.3 mM of each amino acid), (R,S)-(endo,exo)-2-aminobicyclo(2,2,1)-heptane-2-carboxylic acid (BCH, 10 mM), L-arginine (Arg, 10 mM), L-lysine (Lys, 10 mM), L-histidine (His, 10 mM) and a mixture of Arg/Lys/H is (RKH, 3.3 mM of each amino acid). For control conditions, 10 mM of sucrose was added to maintain consistent osmolality relative to the inhibitor conditions. The pH of each solution of inhibitor in buffer was adjusted as necessary to 7.40 with 3 M aqueous hydrochloric acid prior to use in cell uptake assays. […]

[1] = tested on: intracranial 9L gliosarcoma tumor
Procedure: (§1) MicroPET imaging studies were performed in 2 rats implanted with subcutaneous 9L tumors and 1 rat implanted with an intracranial tumor. The subcutaneous implantations were performed as in the biodistribution studies except that the tumors were allowed to grow for 11 days prior to imaging. The intracranial tumor was implanted in the left midcerebrum using a template method as described previously in La Regina, M. C., et al., Lab. Anim. 34: 265-271, 2000, using a total of 5×10^4 cells suspended in 5 µL total volume. […] Computed axial tomography (CT) images were acquired with a MicroCAT II System (ImTek Inc., Knoxville, Tenn.), and PET data were acquired with MicroPET-FOCUS 120 and 220 scanners (Concorde MicroSystems Knoxville Tenn., USA) for 120 minutes after the intravenous tail vein injection of 0.24 to 0.31 mCi of (S)-[^18F]4. The PET and CT images were fused and analyzed using an Amira software package (Carlsbad Calif., USA), and time-activity curves were generated using ASIPro PET data analysis software (Concorde MicroSystems, Knoxville Tenn., USA).

[2] = tested on: subcutaneous 9L gliosarcoma tumor
Procedure: as §1

[3] = post injection, intracranial tumor
[4] = post injection, subcutaneous tumor

## Cl.N[C@@H](Cc1cn(CC[18F])nn1)C(=O)O [(S)-[^18F]4, (S)-2-amino-3-[1-(2-fluoroethyl)-1H-[1,2,3]triazol-4-yl]propanoic acid hydrochloride salt-[^18F]]
9L gliosarcoma cells; neutral amino acid inhibitor assay, p<0.001
  inhibition of uptake by ASC condition relative to the sodium control: 89%
9L gliosarcoma cells; range over the three basic amino acids
  inhibition of uptake by L-His, L-Arg and L-Lys: 50-69%
9L gliosarcoma cells; sodium buffer
  inhibition of uptake by L-Arg relative to control: 50%
  inhibition of uptake by L-His relative to control: 69%
9L gliosarcoma cells; sodium buffer, Arg/Lys/His 3.3 mM each (FIG. 4/6)
  percent uptake relative to control, Na RKH: 37±6%
9L gliosarcoma cells; sodium buffer, BCH 10 mM, 30 sec uptake, neutral amino acid inhibitor assay (FIG. 3/5)
  percent uptake relative to control, Na BCH: 74±13%
9L gliosarcoma cells; sodium buffer, 30 sec uptake, neutral amino acid inhibitor assay (FIG. 3/5)
  percent uptake relative to control, Na ASC: 11±7%
9L gliosarcoma cells; sodium buffer, basic side chain amino acid inhibitor assay (FIG. 4/6)
  percent uptake relative to control, Na ASC: 2.4±3.5%
9L gliosarcoma cells; sodium buffer, L-arginine 10 mM (FIG. 4/6)
  percent uptake relative to control, Na Arg: 50±9%
9L gliosarcoma cells; sodium buffer, L-histidine 10 mM (FIG. 4/6)
  percent uptake relative to control, Na His: 31±5%
9L gliosarcoma cells; sodium buffer, L-lysine 10 mM (FIG. 4/6)
  percent uptake relative to control, Na Lys: 46±4%
9L gliosarcoma cells; sodium buffer, MeAIB 10 mM, 30 sec uptake, neutral amino acid inhibitor assay (FIG. 3/5)
  percent uptake relative to control, Na MeAIB: 82±7%
9L gliosarcoma cells; sodium control vs sodium BCH
  inhibition of uptake by BCH versus control in the presence of sodium: 26%
9L gliosarcoma cells; sodium control vs. choline control
  inhibition of uptake by substituting choline for sodium: 42%
9L gliosarcoma cells; sodium free conditions
  reduction of uptake by BCH relative to the choline control: approximately 50%
9L gliosarcoma cells; sodium-free choline buffer, BCH 10 mM, relative to sodium control (FIG. 3/5)
  percent uptake relative to control, Cho BCH: 30±6%
9L gliosarcoma cells; sodium-free choline buffer, sucrose 10 mM, relative to sodium control (FIG. 3/5)
  percent uptake relative to control, Cho sucrose: 58±7%
9L gliosarcoma cells; system A inhibitor MeAIB, sodium buffer
  inhibition of uptake by MeAIB: no significant inhibition
[1]; MicroPET study
  maximal tumor to brain ratio: approximately 9
[1]; brain, post injection
  time of peak uptake in adjacent normal tissues: ≤ 5 min
[1]; intracranial tumor
  maximal standard uptake value (SUV): 1.1
[1]; [3]
  time of maximal tumor uptake: 27.5 min
  time of near maximal tumor uptake: approximately 20 min
[2]; 30 min, MicroPET
  tumor to bone (spinal column) ratio: 2.5
  tumor to paraspinal muscle uptake ratio: approximately 5.0
[2]; paraspinal muscle and spinal column, post injection
  time of peak uptake in adjacent normal tissues: ≤ 5 min
[2]; [4]
  time of maximal tumor uptake: 32.5 min
  time of near maximal tumor uptake: approximately 20 min
[2]; subcutaneous 9L tumor
  maximal standard uptake value (SUV): 1.6
